According to patent US7432109B2, “Spetroscopic pH measurement using optimized mixtures of reagents to extend measurement range” (Schlumberger Technology Corporation, priority 2002, dated 2008):

Assay: thermodynamic acid dissociation constant (pKa) of pH sensitive reagents
Assay type: physicochemical
Settings: reagent properties used in simulations

Compound | pKa
O=S1(=O)OC(c2ccc(O)c(Cl)c2)(c2ccc(O)c(Cl)c2)c2ccccc21 [Chlorophenol Red] | 6.11
O=S1(=O)OC(c2cc(Br)c(O)c(Br)c2)(c2cc(Br)c(O)c(Br)c2)c2ccccc21 [Bromophenol Blue] | 4.11
